Results: ChEMBL document CHEMBL1201862, “PubChem BioAssay data set” (2004)
Active and inactive are the calls of the source.

Experiments:
[1] = biological target: T1, Apoptotic protease-activating factor 1 (Homo sapiens, UniProt O14727); test: SAR analysis of small molecule Activators of Apaf-1 in a Fluorescent assay.; format: functional; conditions: read-out: EC50_Mean;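 also: caspase-3 cleavage of fluorogenic Rh110 DEVD substrate downstream of apoptosome activation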
T1 sequence (O14727 whole entry): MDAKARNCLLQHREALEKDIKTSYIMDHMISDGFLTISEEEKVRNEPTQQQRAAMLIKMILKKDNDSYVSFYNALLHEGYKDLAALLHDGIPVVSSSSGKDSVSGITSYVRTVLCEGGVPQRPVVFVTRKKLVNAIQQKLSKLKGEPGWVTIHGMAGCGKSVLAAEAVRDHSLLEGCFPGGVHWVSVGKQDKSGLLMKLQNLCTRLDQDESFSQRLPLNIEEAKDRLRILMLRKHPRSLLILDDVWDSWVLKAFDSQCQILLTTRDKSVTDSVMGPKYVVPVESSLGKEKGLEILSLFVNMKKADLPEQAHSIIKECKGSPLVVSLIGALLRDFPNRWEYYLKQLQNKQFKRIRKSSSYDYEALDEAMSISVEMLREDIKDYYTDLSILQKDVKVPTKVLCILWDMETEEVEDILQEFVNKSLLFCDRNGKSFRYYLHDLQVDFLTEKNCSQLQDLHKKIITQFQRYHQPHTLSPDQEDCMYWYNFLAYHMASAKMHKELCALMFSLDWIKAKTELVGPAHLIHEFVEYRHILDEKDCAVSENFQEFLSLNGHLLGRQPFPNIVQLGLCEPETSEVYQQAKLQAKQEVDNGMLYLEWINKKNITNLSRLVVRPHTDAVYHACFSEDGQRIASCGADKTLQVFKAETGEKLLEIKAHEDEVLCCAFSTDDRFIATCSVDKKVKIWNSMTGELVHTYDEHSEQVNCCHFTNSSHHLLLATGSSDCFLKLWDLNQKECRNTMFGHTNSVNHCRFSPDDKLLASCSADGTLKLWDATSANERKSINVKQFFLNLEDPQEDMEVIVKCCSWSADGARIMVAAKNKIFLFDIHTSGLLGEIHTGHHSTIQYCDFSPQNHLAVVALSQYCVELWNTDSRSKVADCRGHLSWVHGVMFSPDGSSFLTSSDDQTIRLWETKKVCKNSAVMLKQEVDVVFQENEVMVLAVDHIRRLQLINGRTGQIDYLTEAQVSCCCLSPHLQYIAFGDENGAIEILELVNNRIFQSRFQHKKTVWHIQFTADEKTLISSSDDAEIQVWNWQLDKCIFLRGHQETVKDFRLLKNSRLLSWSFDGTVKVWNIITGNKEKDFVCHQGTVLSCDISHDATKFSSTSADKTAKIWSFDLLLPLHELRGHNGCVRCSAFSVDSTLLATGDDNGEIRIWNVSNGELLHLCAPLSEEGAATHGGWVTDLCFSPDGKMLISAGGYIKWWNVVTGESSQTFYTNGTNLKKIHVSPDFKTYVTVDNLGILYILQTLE

[2] = biological target: Neuropeptides B/W receptor type 1 (Homo sapiens, UniProt P48145); test: GPR7 antagonist potency, late-stage follow-up, cell-based, fluorescence, dose response, set 5 (AID 588566); format: functional
[3] = biological target: Melanin-concentrating hormone receptor 1 (Homo sapiens, UniProt Q99705); test: Late-stage fluorescence-based counterscreen for antagonists of the G-protein coupled receptor 7 (GPR7): cell-based dose response assay to identify antagonists of the melanin-concentrating hormone receptor 1 (MCHR1) Set 5.; format: functional
[4] = biological target: Cell division cycle 7-related protein kinase (Homo sapiens, UniProt O00311); format: functional;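 also: value obtained from a kinome-wide kinase panel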
[5] = biological target: MAP kinase-interacting serine/threonine-protein kinase 2 (Homo sapiens, UniProt Q9HBH9); format: functional
[6] = biological target: Mitogen-activated protein kinase kinase kinase kinase 4 (Homo sapiens, UniProt O95819); format: functional
[7] = biological target: Serine/threonine-protein kinase pim-1 (Homo sapiens, UniProt P11309); format: functional
[8] = biological target: Interleukin-1 receptor-associated kinase 4 (Homo sapiens, UniProt Q9NWZ3); format: functional
[9] = biological target: cAMP-dependent protein kinase catalytic subunit alpha (Homo sapiens, UniProt P17612); format: functional
[10] = biological target: Glycogen synthase kinase-3 beta (Homo sapiens, UniProt P49841); format: functional;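 also: value comes from a broad kinome profiling panel, with GSK3B as the panel member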
[11] = biological target: Paired box protein Pax-8 (Homo sapiens, UniProt Q06710); test: inhibitors of PAX8-driven TPO luciferase reporter, dose response, RMG-I cells, cherry-pick (AID 687027); format: functional, cell-based;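 also: luciferase reporter driven by Pax8 target thyroperoxidase promoter measured by SteadyGlo luminescence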
[12] = miR-122 activators in hepatoma reporter cells, dose response, cell-based, Huh7 psiCHECK-miR122, Renilla luciferase, cherry-picked (AID 651956); format: functional;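 also: huh7 hepatoma cells stably carrying a psiCHECK-2 miR-122 sensor plasmid; renilla luciferase signal reporting endogenous miR-122 activity after 48 h compound exposure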
[13] = biological target: T2, Interleukin-8 (Homo sapiens, UniProt P10145); test: Dose Response confirmation of uHTS small molecule hits for cystic fibrosis induced NFkb Inhibitors in a TNFa-induced IL8 counterscreen.; format: functional; conditions: read-out: IC50_Mean
[14] = biological target: T2, Interleukin-8; test: Dose Response confirmation of uHTS small molecule hits for cystic fibrosis induced NFkb Inhibitors in a PAF-induced IL8 counterscreen.; format: functional; conditions: read-out: IC50_Mean
[15] = inhibitors of SNCA 5'UTR-driven reporter translation, confirmation, H4 neuroglioma cells, luminescence (AID 1988); format: functional, cell-based
[16] = HEK293T cytotoxicity, dose response, cytotoxicity control for miR-122 modulator project, cell-based, inhibitor set, cherry-pick, set 2 (AID 720697); format: functional
[17] = inhibitors of firefly luciferase expression or activity, dose response, H4 neuroglioma cells, luminescence (AID 1990); format: functional, cell-based
[18] = biological target: Melanocortin receptor 4 (Homo sapiens, UniProt P32245); format: functional, cell-based;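 also: Cell-based assay with luminescence read-out, confirmatory dose-response testing for agonist activity of biased ligands at MC4R; human U2OS cells with tagged receptor and beta-arrestin; potency of agonists that increase receptor coupling to beta-arrestin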
[19] = non-specific cell cytotoxicity, dose response, cytotoxicity control for PAX8 inhibitor project, plate reader, dry powder samples (AID 743021); format: functional, cell-based
[20] = biological target: T3, Ubiquitin-conjugating enzyme E2 N (Homo sapiens, UniProt P61088); format: functional;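 also: Dose-response confirmation in a TR-FRET assay detecting UBC13-driven polyubiquitin chain formation, inhibition measured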
T3 sequence (P61088 whole entry): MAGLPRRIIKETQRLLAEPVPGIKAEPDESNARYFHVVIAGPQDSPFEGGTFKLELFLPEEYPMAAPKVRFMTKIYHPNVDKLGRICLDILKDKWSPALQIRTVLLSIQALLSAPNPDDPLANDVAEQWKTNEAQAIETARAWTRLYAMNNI

[21] = system: INS1; test: beta cell apoptosis inhibitors, cytokine rescue, dose response, luminescence, retest (AID 449756); format: functional, cell-based; conditions: Rattus norvegicus;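 also: cell death triggered by IL-1 beta plus TNF-alpha plus IFN-gamma mixture; protective hits raise ATP signal compared with cytokine alone wells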
[22] = system: Streptococcus sp. 'group A'; test: growth inhibition of control SK(-) GAS strain, dose response, counter-screen for streptokinase expression inhibitor project, luminescence, kanamycin, BacTiterGlo, confirmation (AID 1900); format: functional, organism-based
[23] = HEK293T cytotoxicity, dose response, cytotoxicity control for miR-122 modulator project, cell-based, activator set, cherry-pick (AID 720690); format: functional;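 also: HEK293T human cells scored for general mammalian cytotoxicity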
[24] = biological target: Long-chain-fatty-acid--AMP ligase FadD28 (Mycobacterium tuberculosis, UniProt P9WQ59); test: Fluorescence polarization aasay to screen for inhibitors that compete for the binding of FadD28 to a bisubstrate Measured in Biochemical System Using Plate Reader - 2147-01_Inhibitor_Dose_CherryPick_Activity.; format: functional, Mycobacterium tuberculosis H37Rv
[25] = Luminescence Cell-Based Dose Response HTS to Identify Inhibitors of 5'UTR Stem-Loop Driven Prion Protein mRNA Translation in H4 Neuroglioblastoma Cells. [Related pubchem assays: 1827 (Project Summary), 1813 (Primary HTS)]; format: functional
[26] = biological target: T4, Streptokinase A (Streptococcus pyogenes serotype M1, UniProt P10520); test: S. pyogenes streptokinase expression inhibitors, potency, dose response, plasminogen activation absorbance, OD405 (AID 1914); format: functional, Streptococcus pyogenes M1 GAS;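 also: secreted streptokinase activity via plasminogen activation per viability signal from cell pellet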
T4 sequence (P10520 whole entry): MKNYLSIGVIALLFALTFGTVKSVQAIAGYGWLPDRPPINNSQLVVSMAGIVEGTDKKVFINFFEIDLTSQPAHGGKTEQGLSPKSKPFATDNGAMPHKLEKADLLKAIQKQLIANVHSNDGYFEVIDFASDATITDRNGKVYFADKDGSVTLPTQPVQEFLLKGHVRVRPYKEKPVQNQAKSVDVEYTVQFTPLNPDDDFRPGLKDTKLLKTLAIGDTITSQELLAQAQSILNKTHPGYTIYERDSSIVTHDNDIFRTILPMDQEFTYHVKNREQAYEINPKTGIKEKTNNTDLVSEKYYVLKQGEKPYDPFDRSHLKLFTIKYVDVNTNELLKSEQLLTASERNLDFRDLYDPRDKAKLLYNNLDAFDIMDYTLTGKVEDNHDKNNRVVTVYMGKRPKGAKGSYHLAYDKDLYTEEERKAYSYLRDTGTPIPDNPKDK

[27] = system: Streptococcus; test: Group A Streptococcus viability loss, dose response, counter-screen for streptokinase expression inhibitor project, luminescence, BacTiterGlo (AID 1915); format: functional, organism-based;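 also: potency for reduction of bacterial viability or growth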
[28] = biological target: Photoreceptor-specific nuclear receptor (Homo sapiens, UniProt Q9Y5X4); format: functional, cell-based;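 also: CHO-S cells with Gal4-NCOR and VP16-NR2E3 two-hybrid luciferase reporter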
[29] = biological target: Activin receptor type-1 (Homo sapiens, UniProt Q04771); test: Navigating the Kinome. Panel member name: ACVR1; format: functional
[30] = biological target: Aryl hydrocarbon receptor (Homo sapiens, UniProt P35869); conditions: Potency;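 also: confirmatory quantitative high-throughput screen measuring activation of the AhR signaling pathway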
[31] = biological target: T5, DNA repair protein RAD52 homolog (Homo sapiens, UniProt P43351); format: functional, biochemical
T5 sequence (P43351 whole entry): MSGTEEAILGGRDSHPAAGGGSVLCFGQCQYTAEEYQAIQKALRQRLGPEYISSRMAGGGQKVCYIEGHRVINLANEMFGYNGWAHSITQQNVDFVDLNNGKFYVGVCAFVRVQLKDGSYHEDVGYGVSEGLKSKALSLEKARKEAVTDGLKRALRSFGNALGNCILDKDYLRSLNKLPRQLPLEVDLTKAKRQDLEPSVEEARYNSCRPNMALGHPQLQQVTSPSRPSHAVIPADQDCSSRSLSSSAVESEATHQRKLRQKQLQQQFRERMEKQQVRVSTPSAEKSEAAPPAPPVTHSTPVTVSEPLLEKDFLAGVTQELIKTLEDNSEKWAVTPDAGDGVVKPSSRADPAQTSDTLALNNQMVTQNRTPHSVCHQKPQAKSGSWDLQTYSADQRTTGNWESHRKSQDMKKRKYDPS

[32] = biological target: DNA repair and recombination protein RAD54-like (Homo sapiens, UniProt Q92698); test: inhibitors of human RAD54 branch migration, confirmation, biochemical, fluorescence, cherry-picked samples, dose series (AID 651657); format: functional
[33] = biological target: Beta-2 adrenergic receptor (Homo sapiens, UniProt P07550); test: beta2AR agonists driving receptor internalization, dose response, cell-based, FAP fluorogen, flow cytometry, cherry pick 1 (AID 588763); format: functional
[34] = Fluorescence-based cell-based high throughput dose response assay for inhibitors of the interaction of nucleotide-binding oligomerization domain containing 2 (NOD2) and the receptor-interacting serine-threonine kinase 2 (RIPK2).; format: functional; conditions: Homo sapiens
[35] = biological target: Steroidogenic factor 1 (Homo sapiens, UniProt Q13285); test: Counterscreen for inverse agonists of the liver receptor homolog-1 (LRH-1; NR5A2): Luminescence-based cell-based high throughput dose response assay to identify inverse agonists of the Steroidogenic Factor 1 Nuclear Receptor (SF1; NR5A1).; format: functional
[36] = biological target: Nuclear receptor subfamily 5 group A member 2 (Homo sapiens, UniProt O00482); format: functional, cell-based;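 also: HEK293T cells transfected with LRH-1 and a StAR promoter luciferase reporter; potency for inhibitors that lower LRH-1 driven reporter light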
[37] = StAR promoter reporter inhibition counter-screen, dose response, counter-screen for LRH-1 inverse agonist project, cell-based, luminescence, luciferase reporter (AID 651969); format: functional

Melanocortin receptor 4, sequence (P32245 whole entry): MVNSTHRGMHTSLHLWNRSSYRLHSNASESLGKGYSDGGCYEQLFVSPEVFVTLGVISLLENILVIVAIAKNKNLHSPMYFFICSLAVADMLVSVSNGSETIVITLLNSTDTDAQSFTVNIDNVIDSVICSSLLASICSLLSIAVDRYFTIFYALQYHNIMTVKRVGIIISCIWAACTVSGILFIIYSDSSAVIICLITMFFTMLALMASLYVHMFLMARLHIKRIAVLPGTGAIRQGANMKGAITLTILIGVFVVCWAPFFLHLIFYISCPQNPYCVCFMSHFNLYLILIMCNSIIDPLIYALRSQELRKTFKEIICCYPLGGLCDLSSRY
T2 sequence (P10145 whole entry): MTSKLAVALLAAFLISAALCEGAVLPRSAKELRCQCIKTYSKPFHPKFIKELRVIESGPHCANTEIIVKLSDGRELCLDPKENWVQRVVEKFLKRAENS
Neuropeptides B/W receptor type 1, sequence (P48145 whole entry): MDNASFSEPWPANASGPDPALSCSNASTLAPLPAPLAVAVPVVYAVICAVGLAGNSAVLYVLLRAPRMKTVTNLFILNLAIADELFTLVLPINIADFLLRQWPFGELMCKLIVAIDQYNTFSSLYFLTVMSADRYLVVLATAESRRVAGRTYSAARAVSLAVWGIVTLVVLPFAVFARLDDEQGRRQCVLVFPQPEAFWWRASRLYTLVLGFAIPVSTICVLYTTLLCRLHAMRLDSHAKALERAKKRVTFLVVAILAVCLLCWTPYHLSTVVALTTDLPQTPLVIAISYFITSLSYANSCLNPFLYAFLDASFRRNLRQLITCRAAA
Melanin-concentrating hormone receptor 1, sequence (Q99705 whole entry): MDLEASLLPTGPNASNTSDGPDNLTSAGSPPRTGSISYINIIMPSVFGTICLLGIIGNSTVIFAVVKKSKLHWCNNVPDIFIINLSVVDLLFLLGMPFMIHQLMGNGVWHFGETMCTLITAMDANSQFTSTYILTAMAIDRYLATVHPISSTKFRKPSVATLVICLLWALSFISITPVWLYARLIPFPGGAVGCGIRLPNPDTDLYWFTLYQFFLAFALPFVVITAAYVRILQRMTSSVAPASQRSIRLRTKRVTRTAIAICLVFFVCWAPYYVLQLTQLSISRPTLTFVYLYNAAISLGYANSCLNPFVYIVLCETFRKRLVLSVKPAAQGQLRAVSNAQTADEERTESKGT
Interleukin-1 receptor-associated kinase 4, sequence (Q9NWZ3 whole entry): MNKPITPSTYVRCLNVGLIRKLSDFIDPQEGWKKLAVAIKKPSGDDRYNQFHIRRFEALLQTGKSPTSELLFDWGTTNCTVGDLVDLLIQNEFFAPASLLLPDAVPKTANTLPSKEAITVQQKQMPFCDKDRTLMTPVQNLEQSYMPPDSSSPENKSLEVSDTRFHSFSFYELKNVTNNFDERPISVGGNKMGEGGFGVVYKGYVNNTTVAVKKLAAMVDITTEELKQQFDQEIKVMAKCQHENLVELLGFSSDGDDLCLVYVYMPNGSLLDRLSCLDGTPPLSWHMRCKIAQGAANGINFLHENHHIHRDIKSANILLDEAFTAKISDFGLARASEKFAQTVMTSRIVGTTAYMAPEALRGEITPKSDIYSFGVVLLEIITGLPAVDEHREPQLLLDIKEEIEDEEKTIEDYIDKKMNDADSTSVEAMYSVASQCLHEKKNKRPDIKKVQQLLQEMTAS
DNA repair and recombination protein RAD54-like, sequence (Q92698 whole entry): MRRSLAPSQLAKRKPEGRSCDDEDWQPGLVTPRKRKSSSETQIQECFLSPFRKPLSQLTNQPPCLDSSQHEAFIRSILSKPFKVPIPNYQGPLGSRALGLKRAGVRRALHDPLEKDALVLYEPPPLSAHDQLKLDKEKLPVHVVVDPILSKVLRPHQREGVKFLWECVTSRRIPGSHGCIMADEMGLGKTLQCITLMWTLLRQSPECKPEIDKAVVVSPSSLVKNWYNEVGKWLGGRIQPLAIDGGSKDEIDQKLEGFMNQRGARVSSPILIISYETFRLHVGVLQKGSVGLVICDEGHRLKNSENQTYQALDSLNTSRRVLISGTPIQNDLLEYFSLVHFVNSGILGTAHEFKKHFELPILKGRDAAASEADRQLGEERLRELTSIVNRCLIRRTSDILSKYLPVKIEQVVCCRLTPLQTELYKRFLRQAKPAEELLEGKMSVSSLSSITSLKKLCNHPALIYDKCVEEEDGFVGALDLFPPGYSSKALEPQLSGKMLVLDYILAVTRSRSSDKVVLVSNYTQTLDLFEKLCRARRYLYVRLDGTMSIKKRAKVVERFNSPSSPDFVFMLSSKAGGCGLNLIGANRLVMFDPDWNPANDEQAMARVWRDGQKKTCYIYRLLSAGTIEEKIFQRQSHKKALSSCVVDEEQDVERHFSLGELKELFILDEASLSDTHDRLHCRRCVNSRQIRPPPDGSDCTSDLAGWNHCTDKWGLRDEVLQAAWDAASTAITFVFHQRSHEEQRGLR
Nuclear receptor subfamily 5 group A member 2, sequence (O00482 whole entry): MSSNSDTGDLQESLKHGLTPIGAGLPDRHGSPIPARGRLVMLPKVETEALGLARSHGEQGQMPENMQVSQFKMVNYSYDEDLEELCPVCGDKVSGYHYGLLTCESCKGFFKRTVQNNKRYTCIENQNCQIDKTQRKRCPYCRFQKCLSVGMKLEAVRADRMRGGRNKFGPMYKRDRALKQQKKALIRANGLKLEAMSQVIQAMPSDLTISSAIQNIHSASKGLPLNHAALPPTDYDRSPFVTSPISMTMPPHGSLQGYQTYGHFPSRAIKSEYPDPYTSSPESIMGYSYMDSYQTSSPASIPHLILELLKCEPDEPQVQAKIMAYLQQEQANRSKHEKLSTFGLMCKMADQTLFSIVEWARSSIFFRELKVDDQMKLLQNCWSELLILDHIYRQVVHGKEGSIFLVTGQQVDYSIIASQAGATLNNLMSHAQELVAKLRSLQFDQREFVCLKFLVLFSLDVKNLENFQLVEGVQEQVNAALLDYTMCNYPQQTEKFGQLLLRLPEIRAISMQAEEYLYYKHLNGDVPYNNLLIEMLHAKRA
Serine/threonine-protein kinase pim-1, sequence (P11309 whole entry): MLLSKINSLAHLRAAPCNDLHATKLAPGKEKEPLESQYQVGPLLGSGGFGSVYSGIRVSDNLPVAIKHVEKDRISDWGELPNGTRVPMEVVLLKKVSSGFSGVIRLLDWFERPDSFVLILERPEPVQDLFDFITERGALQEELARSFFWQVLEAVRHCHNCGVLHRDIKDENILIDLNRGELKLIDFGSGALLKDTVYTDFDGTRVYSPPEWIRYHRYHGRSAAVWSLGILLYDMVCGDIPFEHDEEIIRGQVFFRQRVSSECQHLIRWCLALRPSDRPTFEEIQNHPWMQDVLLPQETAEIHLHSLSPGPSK
Aryl hydrocarbon receptor, sequence (P35869 whole entry): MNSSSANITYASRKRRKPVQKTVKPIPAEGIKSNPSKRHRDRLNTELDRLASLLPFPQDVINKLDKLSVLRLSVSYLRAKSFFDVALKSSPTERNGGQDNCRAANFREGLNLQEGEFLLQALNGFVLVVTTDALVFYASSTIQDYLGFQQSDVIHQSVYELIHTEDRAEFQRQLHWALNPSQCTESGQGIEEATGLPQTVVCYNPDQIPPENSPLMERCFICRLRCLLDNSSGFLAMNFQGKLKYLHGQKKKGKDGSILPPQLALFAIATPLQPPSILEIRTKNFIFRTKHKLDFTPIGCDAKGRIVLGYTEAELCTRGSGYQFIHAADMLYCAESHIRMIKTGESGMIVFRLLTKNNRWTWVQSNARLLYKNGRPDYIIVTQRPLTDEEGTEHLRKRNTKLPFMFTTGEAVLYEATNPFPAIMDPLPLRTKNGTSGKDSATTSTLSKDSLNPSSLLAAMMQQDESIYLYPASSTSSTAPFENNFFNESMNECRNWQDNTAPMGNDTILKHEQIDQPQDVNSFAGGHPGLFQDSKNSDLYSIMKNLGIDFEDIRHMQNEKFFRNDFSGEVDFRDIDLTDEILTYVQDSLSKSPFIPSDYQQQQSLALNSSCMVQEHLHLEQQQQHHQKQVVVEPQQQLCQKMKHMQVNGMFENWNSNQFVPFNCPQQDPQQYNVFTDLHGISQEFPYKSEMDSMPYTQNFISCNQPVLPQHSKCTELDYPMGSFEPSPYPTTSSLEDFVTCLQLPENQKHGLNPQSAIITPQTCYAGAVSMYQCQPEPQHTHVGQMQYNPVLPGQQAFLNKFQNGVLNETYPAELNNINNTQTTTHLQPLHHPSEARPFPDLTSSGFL
Photoreceptor-specific nuclear receptor, sequence (Q9Y5X4 whole entry, the tested form may be a part): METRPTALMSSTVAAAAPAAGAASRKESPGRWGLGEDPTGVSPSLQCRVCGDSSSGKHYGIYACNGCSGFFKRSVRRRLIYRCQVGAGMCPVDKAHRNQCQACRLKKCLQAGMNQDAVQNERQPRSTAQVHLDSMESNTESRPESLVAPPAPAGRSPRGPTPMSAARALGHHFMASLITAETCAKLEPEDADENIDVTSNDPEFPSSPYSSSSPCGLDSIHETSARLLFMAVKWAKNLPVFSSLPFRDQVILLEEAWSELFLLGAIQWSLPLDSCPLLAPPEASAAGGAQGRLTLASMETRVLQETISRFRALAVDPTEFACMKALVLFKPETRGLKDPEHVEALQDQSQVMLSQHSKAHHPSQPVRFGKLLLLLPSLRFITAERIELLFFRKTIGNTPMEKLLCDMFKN
Beta-2 adrenergic receptor, sequence (P07550 whole entry, the tested form may be a part): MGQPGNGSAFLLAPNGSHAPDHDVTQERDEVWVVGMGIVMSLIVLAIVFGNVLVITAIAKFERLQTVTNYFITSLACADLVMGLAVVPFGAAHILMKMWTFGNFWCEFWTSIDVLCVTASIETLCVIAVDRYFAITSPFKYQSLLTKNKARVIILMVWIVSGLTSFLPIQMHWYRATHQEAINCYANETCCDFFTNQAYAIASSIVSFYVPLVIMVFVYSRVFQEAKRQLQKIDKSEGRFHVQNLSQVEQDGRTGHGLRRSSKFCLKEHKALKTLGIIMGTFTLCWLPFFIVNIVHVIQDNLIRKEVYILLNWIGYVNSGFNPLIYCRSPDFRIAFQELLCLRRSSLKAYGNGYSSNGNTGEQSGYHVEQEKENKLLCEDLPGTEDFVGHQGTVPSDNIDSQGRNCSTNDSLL

Structure (SMILES): CO[C@@H]1CS(=O)(=O)C2C(c3ccc(F)cc3)=NOC21 (some centres undefined)
- EC50 [1]: > 100 µM (inactive)

Structure (SMILES): COc1ccc(Oc2c(Cl)cnn(CC(=O)N(C3CCCCC3)C3CCCCC3)c2=O)cc1
- IC50 [2]: 15.7 µM (inactive)
- IC50 [3]: > 20 µM (inactive)

Structure (SMILES): CCCCNc1cc(-c2c[nH]c3ncccc23)ncn1
- Ki [4]: 0.00631 µM (active)
- Ki [5]: 0.0631 µM (active)
- Ki [6]: 0.0158 µM (active)
- Ki [7]: 0.158 µM (active)
- Ki [8]: 1 µM (active)
- Ki [9]: 1 µM (active)
- Ki [10]: 0.0501 µM (active)

Structure (SMILES): CCN1CCN(Cc2ccc(NC(=O)c3ccc(C)c(NC(=O)C(=O)c4c[nH]c5ccccc45)c3)cc2C(F)(F)F)CC1
- AC50 [11]: 12.1 µM (active)
- AC50 [12]: 11.3 µM (active)
- IC50 [13]: 39.7 µM (inactive)
- IC50 [14]: 2.27 µM (active)
- EC50 [15]: 7.65 µM (active)
- AC50 [16]: 8.7 µM (active)
- EC50 [17]: 4.17 µM (inconclusive)
- EC50 [18]: > 89.2 µM (inactive)
- AC50 [19]: 68 µM (active)
- IC50 [20]: > 20 µM (inactive)
- AC50 [21]: 7.69 µM (active)
- EC50 [22]: 4.28 µM (active)
- AC50 [23]: 14.1 µM (active)
- AC50 [24]: 12 µM (active)
- EC50 [25]: 5.83 µM (active)
- EC50 [26]: > 150 µM (not active)
- EC50 [27]: 7.74 µM (active)

Structure (SMILES): O=C(C1CC1)N1CCc2cc(Br)cc(S(=O)(=O)N3CCN(c4ccccn4)CC3)c21
- IC50 [28]: 1.06 µM (active)

Structure (SMILES): Cn1c(=O)n(-c2ccc(C(C)(C)C#N)cc2)c2c3cc(-c4cnc5ccccc5c4)ccc3ncc21 [DACTOLISIB]
- Ki [29]: 1.26 µM (active)

Structure (SMILES): Cc1cc2nc(N)sc2cc1C
- AC50 [30]: 10 µM (inconclusive)

Structure (SMILES): CCN(CC)CCN=C(S)Nc1ccc2nc(N3CCN(C)CC3)cc(C)c2c1
- AC50 [31]: 5.01 µM (active)
- AC50 [32]: 17.2 µM (active)

Structure (SMILES): N#Cc1cccc(NC(=O)COC(=O)c2ccccc2C(=O)c2ccc(Cl)c([N+](=O)[O-])c2)c1
- EC50 [33]: 5.27 µM (inactive)
- IC50 [34]: 1.99 µM (active)

Structure (SMILES): O=c1c(Oc2ccc3c(c2)OCO3)c(Cl)cnn1C1c2ccccc2-c2ccccc21
- IC50 [2]: > 20 µM (inactive)
- IC50 [3]: > 20 µM (inactive)

Structure (SMILES): COc1ccc(CCNC(=O)CSc2nc3nc(O)cc(O)c3s2)cc1
- IC50 [35]: 6.9 µM (active)
- IC50 [36]: 97.8 µM (inactive)
- IC50 [37]: 35.9 µM (inactive)
